Data on one compound can be found in ChEMBL document CHEMBL3102714 (J Med Chem, 2013).

Molecules are shown by their SMILES. Where a SMILES comes first, the peptide text is derived from it.

Assay type in all cases: cell-based
Experiment [1] addresses Neuronal acetylcholine receptor; alpha3/beta2 (Homo sapiens, UniProt P17787+P32297). Put plainly: Antagonist activity at human alpha3beta2 nAChR expressed in Xenopus oocytes assessed as inhibition of ACh-induced current by voltage clamp electrophysiology method.
Experiment [2] concerns the target Nicotinic acetylcholine receptor alpha6/alpha3/beta4 (Homo sapiens, UniProt P30926+P32297+Q15825). Kind of experiment: Antagonist activity at human alpha6alpha3beta4 nAChR expressed in Xenopus oocytes assessed as inhibition of ACh-induced current by voltage clamp electrophysiology method.
Experiment [3] has as its target Neuronal acetylcholine receptor; alpha3/alpha6/beta2/beta3 (Homo sapiens, UniProt P17787+P32297+Q05901+Q15825). Kind of experiment: Antagonist activity at human alpha6/alpha3beta2beta3 nAChR expressed in Xenopus oocytes assessed as inhibition of ACh-induced current by voltage clamp electrophysiology method.
Experiment [4] has as its target Neuronal acetylcholine receptor; alpha3/beta4 (Homo sapiens, UniProt P30926+P32297). Put plainly: Antagonist activity at human alpha3beta4 nAChR expressed in Xenopus oocytes assessed as inhibition of ACh-induced current by voltage clamp electrophysiology method.

Chain of Neuronal acetylcholine receptor; alpha3/alpha6/beta2/beta3 (P17787 whole entry): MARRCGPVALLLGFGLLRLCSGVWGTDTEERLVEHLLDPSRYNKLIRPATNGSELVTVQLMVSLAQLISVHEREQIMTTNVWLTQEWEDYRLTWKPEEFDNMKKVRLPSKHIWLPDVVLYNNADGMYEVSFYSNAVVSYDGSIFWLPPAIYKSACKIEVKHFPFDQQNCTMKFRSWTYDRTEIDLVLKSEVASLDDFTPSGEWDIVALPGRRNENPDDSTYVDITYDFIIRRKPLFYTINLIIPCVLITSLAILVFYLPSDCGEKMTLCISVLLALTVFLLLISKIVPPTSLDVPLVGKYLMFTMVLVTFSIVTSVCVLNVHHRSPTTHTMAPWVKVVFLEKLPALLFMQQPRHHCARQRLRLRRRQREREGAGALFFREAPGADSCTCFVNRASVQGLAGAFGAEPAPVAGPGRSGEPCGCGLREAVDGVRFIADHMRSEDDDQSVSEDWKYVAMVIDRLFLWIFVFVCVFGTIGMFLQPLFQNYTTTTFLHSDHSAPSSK
Chain of Neuronal acetylcholine receptor; alpha3/alpha6/beta2/beta3 (P32297 whole entry): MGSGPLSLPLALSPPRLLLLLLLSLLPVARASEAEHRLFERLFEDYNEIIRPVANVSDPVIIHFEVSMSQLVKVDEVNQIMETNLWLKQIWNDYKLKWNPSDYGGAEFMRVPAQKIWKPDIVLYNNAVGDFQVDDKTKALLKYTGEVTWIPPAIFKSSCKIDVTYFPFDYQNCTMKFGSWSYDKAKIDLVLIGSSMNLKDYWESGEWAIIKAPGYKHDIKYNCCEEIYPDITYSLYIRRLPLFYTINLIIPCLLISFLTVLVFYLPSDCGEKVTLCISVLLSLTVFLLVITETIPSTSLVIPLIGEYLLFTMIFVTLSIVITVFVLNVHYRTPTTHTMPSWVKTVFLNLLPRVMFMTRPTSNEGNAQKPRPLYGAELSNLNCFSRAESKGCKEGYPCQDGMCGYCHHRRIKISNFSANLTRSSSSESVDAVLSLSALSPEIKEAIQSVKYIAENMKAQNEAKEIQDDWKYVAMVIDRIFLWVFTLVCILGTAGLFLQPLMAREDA
Chain of Neuronal acetylcholine receptor; alpha3/alpha6/beta2/beta3 (Q15825 whole entry): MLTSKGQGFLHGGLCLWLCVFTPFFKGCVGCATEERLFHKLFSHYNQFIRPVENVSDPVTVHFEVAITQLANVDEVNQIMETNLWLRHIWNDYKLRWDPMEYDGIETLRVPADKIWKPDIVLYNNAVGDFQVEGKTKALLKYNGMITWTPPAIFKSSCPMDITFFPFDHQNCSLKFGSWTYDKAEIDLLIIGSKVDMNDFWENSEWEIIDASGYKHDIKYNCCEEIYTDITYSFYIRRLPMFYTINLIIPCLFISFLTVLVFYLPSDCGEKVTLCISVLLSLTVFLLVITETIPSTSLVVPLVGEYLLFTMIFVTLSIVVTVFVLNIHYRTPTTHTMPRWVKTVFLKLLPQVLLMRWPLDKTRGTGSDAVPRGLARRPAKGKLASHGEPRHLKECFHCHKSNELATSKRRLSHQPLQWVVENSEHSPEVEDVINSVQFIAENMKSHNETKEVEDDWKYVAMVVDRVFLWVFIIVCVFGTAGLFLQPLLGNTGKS
Chain of Neuronal acetylcholine receptor; alpha3/alpha6/beta2/beta3 (Q05901 whole entry): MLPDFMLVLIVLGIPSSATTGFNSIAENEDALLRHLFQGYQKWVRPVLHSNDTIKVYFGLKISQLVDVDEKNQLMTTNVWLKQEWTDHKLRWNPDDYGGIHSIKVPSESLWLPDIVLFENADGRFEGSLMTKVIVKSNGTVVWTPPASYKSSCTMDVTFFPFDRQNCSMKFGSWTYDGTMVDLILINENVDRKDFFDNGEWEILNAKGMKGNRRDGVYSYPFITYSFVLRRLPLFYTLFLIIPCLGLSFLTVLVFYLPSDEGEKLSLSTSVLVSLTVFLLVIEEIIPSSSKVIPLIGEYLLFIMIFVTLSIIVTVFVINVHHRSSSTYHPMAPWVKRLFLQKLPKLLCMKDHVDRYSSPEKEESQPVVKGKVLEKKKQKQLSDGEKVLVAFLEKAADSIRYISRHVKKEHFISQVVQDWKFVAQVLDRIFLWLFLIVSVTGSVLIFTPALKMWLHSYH
Chain of Neuronal acetylcholine receptor; alpha3/beta2 (P17787 whole entry): as the sequence (P17787 whole entry) above
Chain of Neuronal acetylcholine receptor; alpha3/beta2 (P32297 whole entry): as the sequence (P32297 whole entry) above
Chain of Nicotinic acetylcholine receptor alpha6/alpha3/beta4 (P30926 whole entry): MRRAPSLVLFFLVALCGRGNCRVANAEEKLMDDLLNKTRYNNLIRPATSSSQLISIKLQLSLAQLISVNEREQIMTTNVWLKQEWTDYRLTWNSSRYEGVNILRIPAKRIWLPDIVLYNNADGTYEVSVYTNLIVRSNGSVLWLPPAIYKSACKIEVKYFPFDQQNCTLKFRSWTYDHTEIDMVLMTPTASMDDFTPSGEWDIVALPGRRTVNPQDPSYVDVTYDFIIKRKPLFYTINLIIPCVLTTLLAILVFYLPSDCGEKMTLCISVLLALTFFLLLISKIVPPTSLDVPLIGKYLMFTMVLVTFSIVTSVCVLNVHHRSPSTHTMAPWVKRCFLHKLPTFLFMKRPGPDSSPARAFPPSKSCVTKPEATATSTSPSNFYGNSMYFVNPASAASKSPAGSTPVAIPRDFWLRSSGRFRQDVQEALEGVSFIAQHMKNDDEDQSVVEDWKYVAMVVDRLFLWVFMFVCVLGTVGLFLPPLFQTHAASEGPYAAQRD
Chain of Nicotinic acetylcholine receptor alpha6/alpha3/beta4 (P32297 whole entry): as the sequence (P32297 whole entry) above
Chain of Nicotinic acetylcholine receptor alpha6/alpha3/beta4 (Q15825 whole entry): as the sequence (Q15825 whole entry) above
Chain of Neuronal acetylcholine receptor; alpha3/beta4 (P30926 whole entry): as the sequence (P30926 whole entry) above
Chain of Neuronal acetylcholine receptor; alpha3/beta4 (P32297 whole entry): as the sequence (P32297 whole entry) above

With `CC[C@H](C)[C@@H]1NC(=O)[C@H](CCC(N)=O)NC(=O)[C@@H]2CCCN2C(=O)[C@H](CC(N)=O)NC(=O)[C@H](Cc2cnc[nH]2)NC(=O)[C@H](C(C)C)NC(=O)[C@H]([C@@H](C)O)NC(=O)[C@@H]2CSSC[C@H](NC(=O)[C@@H]3CCCN3C(=O)[C@H](CC(=O)O)NC(=O)[C@@H](N)CCCN=C(N)N)C(=O)N[C@@H](CSSC[C@@H](C(N)=O)NC1=O)C(=O)N[C@@H](CO)C(=O)N[C@@H](CC(N)=O)C(=O)N1CCC[C@H]1C(=O)N[C@@H](C(C)C)C(=O)N2` (HELM PEPTIDE1{R.D.P.C.C.S.N.P.V.C.T.V.H.N.P.Q.I.C.[am]}$PEPTIDE1,PEPTIDE1,4:R3-10:R3|PEPTIDE1,PEPTIDE1,5:R3-18:R3$$$V2.0), the IC50 in experiment [1] is 74.2 nM; in experiment [2], 30.5 nM; in experiment [3] it was 0.95 nM; in experiment [4], 518 nM.
